Assay: Human HepG2 cell viability assay in 384 well format
Assay type: toxicity, cell-based
Parameters: dose 125 nL, time 70.5 hour; concentration not given beside the values
Conditions: HepG2 cells, read-out: Inhibition

Row | SMILES | cytotoxicity at 70.5 h [%]
1 | CC(C)Oc1cccc(Cc2nc3c([nH]2)CCCNC3=O)c1 | -4.78
2 | NC(=O)c1ccc(N2CCN(Cc3cccc4nsnc34)CC2)nc1 | -4.59
3 | CN1C(=O)[C@H]2CC[C@@H]1CN(C(=O)Nc1ccccc1C(F)(F)F)C2 | -4.06
4 | CCO[C@H]1C[C@@H](O)C12CCN(C1Cc3ccccc3C1)CC2 | -10.5
5 | O=C(O)c1ccc(CNC(=O)C2CCN(Cc3ccco3)CC2)s1 | -3.49
6 | CC(C)c1nc(CNC(=O)c2ccc(C(C)N3CCCCC3)o2)cs1 (stereo not given) | 11.9
7 | Cc1cc(C)c2c(N3CCN(C(=O)N4CCOCC4)CC3)ncnc2n1 | 30.5
8 | CCN(CC)C(CNCc1cc(F)cc(F)c1)c1ccco1 (stereo not given) | 20.8
9 | Cc1ccc(NC2CCCN(CCc3ccccc3)C2)nn1 (stereo not given) | -3.93
10 | CCCc1nnc(N2CCC3(CCC(=O)N(C)C3)CC2)o1 | 4.55
11 | Oc1ccccc1CN1CCC(n2cc(-c3ccc(F)cc3)nn2)CC1 | -4
12 | CCCn1cc(NC(=O)c2cccc(CN3CC[C@H](O)C3)c2)nn1 | -11.9
13 | CCCn1cnc(NC(=O)NCC2CCS(=O)(=O)C2)n1 (stereo not given) | 12.9
14 | CCc1nc(CN(C)C(=O)C2CCC(=O)N(CC3CCCCC3)C2)no1 (stereo not given) | -4.07
15 | Cc1c(CN2CCc3[nH]cnc3C2C2CC2)[nH]c2ccc(F)cc12 (stereo not given) | 4.41
16 | Cc1ccoc1C(=O)N1CCC(n2cc(CO)nn2)CC1 | -3.4
17 | CCNC(=O)[C@@H]1C[C@H](N)CN1C(=O)CCc1ccc(C)c(C)c1 | -3.41
18 | CSc1nccc(NCc2cc3n(n2)CCCN(S(C)(=O)=O)C3)n1 | -12.4
19 | Cc1nccn1CCCN1CCCC(c2nccn2C)C1 (stereo not given) | 21.3
20 | COCCN1C[C@H]2CC[C@@H]1CN(Cc1nc3ccccc3n1C)C2 | -6.43
21 | COc1cccc2c1OCC(CNc1ccc(C)nn1)C2 (stereo not given) | -3.11
22 | Cc1cc(C2CCC2)nc(NCC(C)(C)CO)n1 | -2.23
23 | CC1=NOC(C(=O)N(C)CCCn2nc(C)cc2C)C1 (stereo not given) | -0.336
24 | OC[C@H]1CN(Cc2c(Cl)cncc2Cl)C[C@H]1CN1CCCCCC1 | -1.47
25 | N#Cc1ccccc1CC1CCCS(=O)(=O)C1 (stereo not given) | 1.43
26 | COc1ccc(CN(CC2CCCO2)C(=O)CN2CCCCC2=O)cc1 (stereo not given) | -12.9
27 | Cc1c(NC(=O)NC2CCOCC2)cccc1C(=O)N1CCCC1 | 10.6
28 | CC(C)[C@]1(O)CN(C(=O)C2(Cn3cccn3)CC2)C[C@H]1C | -7.77

Row | SMILES | cytotoxicity at 70.5 h [%]
29 | CN(Cc1cc(C(C)(C)C)n[nH]1)C(=O)c1ccccc1C1CCNC1 (stereo not given) | -13.4
30 | Cc1ccc(-c2cn[nH]c2C2CCCN(c3cnccn3)C2)cc1 (stereo not given) | 10.6
31 | CN1CC(C(=O)N(C)Cc2cc(-c3cccnc3)no2)NC1=O (stereo not given) | -8.52
32 | COc1cc(S(=O)(=O)N2C[C@@H](C)[C@@](C)(O)C2)c(C)cc1C | 0.245
33 | COc1ccc(C(=O)N2CCN(c3cc(CCN)nc(C)n3)CC2)cc1 | -0.395
34 | CCn1c(C2CCCN(Cc3ccc4ccccc4n3)C2)nn(C)c1=O (stereo not given) | -3.7
35 | CNCCN1C(=O)CC[C@H]2CN(c3ncc(F)cn3)CC[C@H]21 | 20
36 | O=C(Nc1ccc(F)cc1)C1CNCCN1C(=O)CSc1ccncc1 (stereo not given) | 28.9
37 | O=S(=O)(NCc1ccccc1)Nc1ccc(-n2ccnc2)cc1 | 23.3
38 | CCc1cnc(N)nc1NC(C)c1cnn(C)c1 (stereo not given) | -5.96
39 | Cn1c(N2CCOCC2)nc2cc(C(=O)NCc3cccnc3)ccc21 | -9.04
40 | O=C1NCCN(C(=O)CN2CCOC2=O)C1c1cccc(F)c1 (stereo not given) | -18.2
41 | CNc1cc(C)nc(-c2cc(NC3CCNCC3)nc3[nH]ccc23)n1 | -4.41
42 | Cc1ncc(C(=O)N2C[C@H](CO)C[C@H](CN3CCOCC3)C2)c(=O)[nH]1 | 3.07
43 | CC(C)n1ccnc1C1CCCN(c2ncccc2C(N)=O)C1 (stereo not given) | -0.947
44 | O=C1C[C@H]2CC[C@@H](CN1)N2C(=O)CCCc1ccc(Cl)cc1 | -7.24
45 | Cc1cccc(CN2CCN(c3ncnc4[nH]cnc34)CC2CCO)n1 (stereo not given) | 9.72
46 | Clc1ccc(N2CCC(C3CCN(Cc4cccnc4)CC3)C2)nc1 (stereo not given) | -8.52
47 | Cc1nc(NC(=O)NC2CC(=O)N(C)C2)nn1C(C)C (stereo not given) | 2.26
48 | CC(Cn1cccn1)n1cnc2cccc(F)c2c1=O (stereo not given) | -7.35
49 | COCC1CCCCN1C(=O)c1cc(Cn2ccc3ccccc32)[nH]n1 (stereo not given) | -2.47
50 | c1ccc(COc2ccccc2NC2CCOCC2)nc1 | -4.09
51 | CC(C(=O)O)N1CC2(CCC1=O)CCN(CCSc1ccccc1)CC2 (stereo not given) | -13.8
52 | Cc1ccc(-c2nc(CN3CCOCS3(=O)=O)c(C)o2)cc1 | -0.637
53 | Cc1nccn1CCN(C)C(=O)C1CCN(C(=O)C2CCCC2)CC1 | 8.88
54 | CCN(CC)C(=O)[C@@H]1C[C@@H](N)CN1c1nc(N2CCCC2)nc(C)c1C | 25.5
55 | Cc1cnc(N(C)Cc2cnc3ccccc3n2)nc1N(C)C | -14.7
